In patent US20100168150A1, “Camptothecin Analogue Compounds, a Process for Their Preparation and Pharmaceutical Compositions Containing Them” (Les Laboratoires Servier, priority 2005, published 2010):
Counter-ions that a name gives are not always drawn.

What was measured:
[1] = system: human colon carcinoma HCT116; test: In vitro cytotoxicity, Microculture Tetrazolium Assay, HCT116; assay type: cell-based; settings: HCT116 cells, 96 hours exposure, inhibition of proliferation
Procedure: (§1) The murine leukaemia L1210 and the human colon carcinomas HCT116 and HT29 were used in vitro. The cells are cultured in RPMI 1640 complete culture medium containing 10% foetal calf serum, 2 mM glutamine, 50 units/ml of penicillin, 50 μg/ml of streptomycin and 10 mM Hepes, pH=7.4. The cells are distributed on microplates and are exposed to the cytotoxic compounds for 4 doubling times, that is to say 48 hours (L1210) or 96 hours (HCT116 and HT29). The number of viable cells is then quantified by a colorimetric assay, the Microculture Tetrazolium Assay (J. Carmichael et al., Cancer Res.; 47, 936-942, (1987)). The results are expressed in terms of the IC50 (the concentration of cytotoxic agent which inhibits proliferation of the treated cells by 50%).

HCT116 = test: In vivo activity with respect to HCT116; settings: compared with non-esterified homologue (compound of Preparation 2)
[2] = system: human colon carcinoma HT29; test: In vitro cytotoxicity, Microculture Tetrazolium Assay, HT29; assay type: cell-based; settings: HT29 cells, 96 hours exposure, inhibition of proliferation
Procedure: as §1

nude mice = test: In vivo toxicity, maximum tolerated dose; settings: i.v. once per week for 3 weeks, compared with compound of Preparation 2
Procedure: (§2) The compounds are formulated in a Tween/water mixture and administered by the intravenous (i.v.) route (administration over three weeks at the rate of once per week, the injection volume being 0.2 ml/mouse with increasing doses of compounds of 6.25, 12.5, 25 and 50 mg/kg) to nude mice (bab/c supplied by Iffa Credo) weighing about 20 g. The maximum tolerated dose (MTD) is the largest dose causing neither death nor a weight loss of more than 20%.

[3] = In vivo toxicity, maximum tolerated dose; settings: nude (bab/c), mouse, in vivo; nude mice, intravenous administration once per week for 3 weeks; largest dose causing neither death nor weight loss of more than 20%
Procedure: as §2

murine leukaemia L1210 = test: In vitro cytotoxicity, Microculture Tetrazolium Assay, L1210; assay type: cell-based; settings: L1210 cells, 48 hours exposure, inhibition of proliferation
Procedure: as §1

| Structure (SMILES) | IC50 ([1]; Homo sapiens, HCT-116) | IC50 ([2]; Homo sapiens, HT-29) | IC50 (murine leukaemia L1210; Mus musculus) | other results |
| --- | --- | --- | --- | --- |
| CCC1(OC(=O)CCN2CCCCC2)C(=O)Cc2c1cc1n(c2=O)Cc2c-1nc1cc3c(cc1c2C1CCC1)OCO3.Cl (stereo not drawn) [Example 2, 7-Ethyl-2,3-methylenedioxy-13-cyclobutyl-8,10-dioxo-8,9,10,12-tetrahydro-7H-cyclopenta[6,7]indolizino[1,2-b]quinolin-7-yl 3-piperidinopropanoate hydrochloride] | 1.5 nM | 3.7 nM |  | in vivo activity with respect to HCT116 compared with compound of Preparation 2 (HCT116): same in vivo activity; toxicity relative to the non-esterified homologue (compound of Preparation 2) (nude mice): two times less toxic; MTD at 3 weeks [3]: 25 mg/kg |
| CCC1(OC(=O)CCN2CCc3cc(OC)c(OC)cc3C2)C(=O)Cc2c1cc1n(c2=O)Cc2c-1nc1cc3c(cc1c2C1CCC1)OCO3 (stereo not drawn) [Example 24, 7-Ethyl-2,3-methylenedioxy-13-cyclobutyl-8,10-dioxo-8,9,10,12-tetrahydro-7H-cyclopenta[6,7]indolizino[1,2-b]quinolin-7-yl 3-[(6,7-dimethoxy-3,4-dihydroisoquinolin-2(1H)-yl]propanoate hydrochloride] |  |  |  | IC50 (murine leukaemia L1210): 7.9 nM; IC50 [1]: 0.7 nM; IC50 [2]: 2.6 nM |
| CCC1(OC(=O)CCN2CCCCC2)C(=O)Cc2c1cc1n(c2=O)Cc2c-1nc1cc3c(cc1c2C)OCO3 (stereo not drawn) [Example 1, 7-Ethyl-2,3-methylenedioxy-13-methyl-8,10-dioxo-8,9,10,12-tetrahydro-7H-cyclopenta[6,7]indolizino[1,2-b]quinolin-7-yl 3-piperidinopropanoate hydrochloride] |  |  | 4.2 nM |  |
| CCC1(OC(=O)CCN2CC[C@H]3CCCC[C@@H]3C2)C(=O)Cc2c1cc1n(c2=O)Cc2c-1nc1cc3c(cc1c2C1CCC1)OCO3 (stereo partly drawn) [Example 23, 7-Ethyl-2,3-methylenedioxy-13-cyclobutyl-8,10-dioxo-8,9,10,12-tetrahydro-7H-cyclopenta[6,7]indolizino[1,2-b]quinolin-7-yl 3-[(4aR,8aS)-octahydroisoquinolin-2(1H)-yl]propanoate hydrochloride] | 1.1 nM | 2.4 nM | 7.3 nM |  |
